Data taken from ChEMBL document CHEMBL4219088, “Novel 4-aminoquinazoline derivatives induce growth inhibition, cell cycle arrest and apoptosis via PI3Kα inhibition” (Bioorg Med Chem, 2018).

Tests used:
Assay type in all cases: functional, cell-based
[1] = system: MDA-MB-231; test: Antiproliferative activity against human MDA-MB-231 cells after 72 hrs by sulforhodamine B assay; settings: MDA-MB-231, 72 h
[2] = system: HCT-116; test: Antiproliferative activity against human HCT116 cells after 72 hrs by sulforhodamine B assay; settings: HCT-116, 72 h
[3] = system: SNU-638; test: Antiproliferative activity against human SNU638 cells after 72 hrs by sulforhodamine B assay; settings: SNU-638, 72 h
[4] = system: A549; test: Antiproliferative activity against human A549 cells after 72 hrs by sulforhodamine B assay; settings: A549, 72 h
[5] = system: MCF7; test: Antiproliferative activity against human MCF7 cells after 72 hrs by sulforhodamine B assay; settings: MCF7, 72 h
[6] = system: SK-HEP1; test: Antiproliferative activity against human SKHEP1 cells after 72 hrs by sulforhodamine B assay; settings: SK-HEP1, 72 h

IC50 [1] [µM]	IC50 [2] [µM]	IC50 [3] [µM]	IC50 [4] [µM]	IC50 [5] [µM]	IC50 [6] [µM]	SMILES
2.32	13.5	0.41	4.12	14.7	12.6	COc1ncc(-c2ccc3ncnc(NCCN(C)C)c3c2)cc1NS(C)(=O)=O
1.22	3.2	1.21	2.42	1.23	9.5	COc1ncc(-c2ccc3ncnc(NCCN(C)C)c3c2)cc1NS(=O)(=O)c1ccc(F)cc1
8.96	18.8	4.52	9.82	13.5	13.4	COc1ncc(-c2ccc3ncnc(NCCCN4CCOCC4)c3c2)cc1NS(=O)(=O)c1ccc(F)cc1F
1.54	2.2	1.26	2.78	3.66	4.68	COc1ncc(-c2ccc3ncnc(NCCCN(C)C)c3c2)cc1NS(=O)(=O)c1ccc(F)cc1F
0.42	0.59	0.61	1.56	10.8	0.44	CCCCS(=O)(=O)Nc1cc(-c2ccc3ncnc(NCCN4CCOCC4)c3c2)cnc1OC
0.18						Cn1c(=O)n(-c2ccc(C(C)(C)C#N)cc2)c2c3cc(-c4cnc5ccccc5c4)ccc3ncc21 [DACTOLISIB]
2.58	1.74	0.98	3.14	4.59	1.14	CCCCS(=O)(=O)Nc1cc(-c2ccc3ncnc(NCCCN4CCOCC4)c3c2)cnc1OC
